Assay results: patent US10960088B2, “Macrocycles, cobalt and iron complexes of same, and methods of making and using same” (The Research Foundation for The State University of New York, priority 2013, dated 2021)

How the values were obtained:
[1] = Displacement of Co^II by Cu^II monitored by UV-vis; format: physicochemical; details: 10-fold excess of Cu^II
Procedure: Samples contained 200 μM Co^II complex, 10 mM MES buffer pH 5.5 and 1, 4, or 10 equivalents of CuCl2. The formation of the Cu^II complexes was monitored at 264 nm, 286 nm, 312 nm and 310 nm for [Cu(TCMT)]^2+, [Cu(NOPE)]^2+, [Cu(TCMC)]^2+, and [Cu(CCRM)]^2+, respectively. A previously reported procedure was followed.

[2] = Dissociation of complex over time monitored by 1H NMR; format: physicochemical; details: for % Dissociation Anions / % Dissociation Acidic: 10 mM Co^II complex; for % Dissociation Anions: 0.40 mM Na2HPO4, 25 mM K2CO3, 100 mM NaCl, pD 7.5-7.9, 12 hours at 37° C.; for % Dissociation Acidic: pD 3.5-3.9, 100 mM NaCl, 12 hours at 37° C.; for dissociation in presence of phosphate and carbonate (in words) / dissociation under acidic conditions (in words): 10 mM complex, 100 mM NaCl; for dissociation in presence of phosphate and carbonate (in words): 0.40 mM Na2HPO4, 25 mM K2CO3, pD 7.5-7.9, 12 hrs at 37° C.; for dissociation under acidic conditions (in words): D2O, pD 3.5-3.9, 1 hr vs 12 hrs (NOPE 4 hrs) at 37° C.
Procedure: Dissociation of the Co^II complexes was monitored via ^1H NMR spectroscopy of samples incubated at 37° C. over a period of 12 hours. To monitor acid dissociation, samples contained 10 mM Co^II complex, 100 mM NaCl, and 3-5 mM 3-(trimethylsilyl)-1-propanesulfonic acid sodium salt as a standard at pD 3.5-3.9. To assess the complexes in the presence of biologically relevant anions, solutions contained 10 mM Co^II complex, 100 mM NaCl, 0.40 mM Na2HPO4, 25 mM K2CO3, and 5 mM 3-(trimethylsilyl)-1-propanesulfonic acid sodium salt as a standard. Generally, 1024 transients were collected for each spectrum. […]

Row | dissociation with competing Cu^II (in words) [1] | % Dissociation Anions [2] [%] | % Dissociation Acidic [2] [%] | dissociation in presence of phosphate and carbonate (in words) [2] | dissociation under acidic conditions (in words) [2] | dissociation under acidic conditions within the first hour ([2]; pD 3.5-3.9, 37° C., first hour) [%] | dissociation with competing Cu^II ([1]; over 4 hours) [%] | SMILES
1 | dissociating completely within one hour | 5 | 95 | doesn't dissociate | doesn't dissociate | 95 | – | NC(=O)CN1CCCN(CC(N)=O)CCN(CC(N)=O)CCCN(CC(N)=O)CC1.[Co+2] [[Co(CCRM)]^2+]
2 | dissociating completely within one hour | <1 | 16 | doesn't dissociate | doesn't dissociate | – | – | NC(=O)CN1CCOCCOCCN(CC(N)=O)CCOCC1.[Co+2] [[Co(NOPE)]^2+]
3 | inert to dissociation | 2 | 7 | doesn't dissociate | doesn't dissociate | – | – | NC(=O)CN1CCN(CC(N)=O)CCN(CC(N)=O)CCN(CC(N)=O)CC1.[Co+2] [[Co(TCMC)]^2+]
4 | – | 5 | 1 | doesn't dissociate | doesn't dissociate | – | ~15 | NC(=O)CN1CCN(CC(N)=O)CCN(CC(N)=O)CC1.[Co+2] [[Co(TCMT)]^2+]
